Data published in ChEMBL document CHEMBL1127163, “Anilide tertiary carbinols: A new structural class of potent potassium channel openers” (Bioorg Med Chem Lett, 1993).

Columns and labels:
[1] = organism: Cavia porcellus; test: The compound was tested for […] activity against guinea pig detrusor (bladder) strip mildly depolarized with 15 mM KCl; assay type: functional
[2] = organism: Cavia porcellus; test: Tested for relaxant activity of compound with 80 mM KCl; assay type: functional
[3] = organism: Cavia porcellus; test: Tested for percent increase in efflux rate constant with 54.6 uM of compound using guinea pig detrusor; assay type: functional
[4] = Tested for dissociation constant of compound at PH of 7.4; assay type: ADME; conditions: pH 7.4
[5] = organism: Cavia porcellus; test: The compound was tested for […] activity against guinea pig vascular tissue (portal vein) strip mildly depolarized with 15 mM KCl; assay type: functional

CC(O)(C(=O)Nc1ccc(S(=O)(=O)c2ccncc2)cc1)C(F)(F)F (racemic)
IC50 [1]: 3800 nM

C[C@](O)(C(=O)Nc1ccc(S(=O)(=O)c2ccncc2)cc1)C(F)(F)F
IC50 [2]: 260000 nM
IC50 [1]: 1600 nM
Increase [3]: 40%

C[C@@](O)(C(=O)Nc1ccc(S(=O)(=O)c2ccncc2)cc1)C(F)(F)F
IC50 [1]: > 30000 nM

O=C(c1ccc(NC(=O)C(O)(C(F)F)C(F)F)cc1)c1ccccn1
pKa [4]: 7.5
IC50 [5]: 3 nM
IC50 [1]: 70 nM

CC1(C)Oc2ccc(C#N)cc2[C@H](N2CCCC2=O)[C@H]1O (single isomer, unassigned) [(-)-CROMAKALIM]
IC50 [5]: 20 nM
IC50 [1]: 570 nM
